pKi: −log10 of the molar value. Each block holds one compound with its values, some of them ahead of it.
What was measured:
[1] = rats, single intragastric dose simultaneous with feeding of cholesterol ester; cited from earlier work
lumenal CE = biological target: T1, lumenal CE (Rattus norvegicus, UniProt P07882); settings: rats, single intragastric dose simultaneous with feeding of cholesterol ester; cited from earlier work
T1 construct: from tissue; host or cells: rat intestinal lumen (in vivo)
T1 sequence (P07882 21-612): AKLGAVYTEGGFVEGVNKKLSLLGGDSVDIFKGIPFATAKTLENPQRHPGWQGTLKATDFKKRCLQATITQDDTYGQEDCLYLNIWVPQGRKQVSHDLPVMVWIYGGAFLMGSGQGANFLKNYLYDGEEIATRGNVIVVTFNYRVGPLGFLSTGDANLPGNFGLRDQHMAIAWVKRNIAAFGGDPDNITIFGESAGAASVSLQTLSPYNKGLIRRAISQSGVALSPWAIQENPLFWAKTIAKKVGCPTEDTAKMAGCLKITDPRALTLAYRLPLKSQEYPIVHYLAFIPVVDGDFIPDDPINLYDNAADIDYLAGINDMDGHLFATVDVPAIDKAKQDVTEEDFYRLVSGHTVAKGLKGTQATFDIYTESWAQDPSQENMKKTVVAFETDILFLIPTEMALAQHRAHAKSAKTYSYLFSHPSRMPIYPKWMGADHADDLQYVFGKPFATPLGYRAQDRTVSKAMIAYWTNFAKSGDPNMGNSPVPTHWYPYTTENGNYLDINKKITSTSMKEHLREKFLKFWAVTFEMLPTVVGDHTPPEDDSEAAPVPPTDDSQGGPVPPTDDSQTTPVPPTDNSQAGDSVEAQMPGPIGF

CE = biological target: T2, CE (Homo sapiens, UniProt P19835); settings: in vitro; cited from earlier work
T2 sequence (P19835 21-753): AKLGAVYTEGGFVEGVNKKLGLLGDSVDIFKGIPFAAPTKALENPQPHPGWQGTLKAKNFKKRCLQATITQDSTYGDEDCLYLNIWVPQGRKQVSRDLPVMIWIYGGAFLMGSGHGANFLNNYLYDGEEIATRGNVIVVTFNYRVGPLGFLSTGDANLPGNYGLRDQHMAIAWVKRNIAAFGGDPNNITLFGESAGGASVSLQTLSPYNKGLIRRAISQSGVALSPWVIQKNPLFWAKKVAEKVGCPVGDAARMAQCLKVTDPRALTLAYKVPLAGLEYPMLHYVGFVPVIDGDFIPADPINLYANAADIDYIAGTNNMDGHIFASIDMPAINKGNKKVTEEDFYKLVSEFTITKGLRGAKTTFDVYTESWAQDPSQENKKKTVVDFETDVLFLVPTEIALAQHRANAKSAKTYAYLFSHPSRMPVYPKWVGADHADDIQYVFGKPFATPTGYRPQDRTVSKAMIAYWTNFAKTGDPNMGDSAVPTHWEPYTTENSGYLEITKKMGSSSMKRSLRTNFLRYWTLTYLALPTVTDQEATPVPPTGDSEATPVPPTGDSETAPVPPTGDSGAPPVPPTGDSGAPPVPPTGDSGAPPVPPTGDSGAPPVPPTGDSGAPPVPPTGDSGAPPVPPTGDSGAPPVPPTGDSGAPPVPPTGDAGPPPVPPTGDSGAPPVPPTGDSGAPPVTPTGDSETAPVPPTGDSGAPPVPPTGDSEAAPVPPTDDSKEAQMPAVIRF

[2] = biological target: T3, cholesterol esterase (CE) (Homo sapiens, UniProt P19835); experiment: Kinetic inhibition studies of CE with substrate p-nitrophenylbutyrate, Dixon plots; settings: for inhibition of CE (in words): kinetic inhibition studies
T3 sequence (P19835 21-753): T2 sequence (P19835 21-753)

chymotrypsin = chymotrypsin (Bos taurus, UniProt P00766); experiment: Inhibition of chymotrypsin; format: biochemical
Description: Thus, the compounds of the present invention which have a saturated ring as part of the 3-substituent provide tremendous selectivity when compared to compounds where the 3-substituent includes an aromatic ring.

Structure (SMILES): O=c1oc(Cl)ccc1Cc1ccccc1 [3-benzyl-6-chloropyrone]
drop in cholesterol absorption [1]: 60%
inactivation of lumenal CE activity (lumenal CE): 63%
half life of CE inactivation (CE): 100 s

inhibition of CE (in words) [2]: potent inhibitors of CE
Structure (SMILES): O=c1oc(Cl)ccc1CCCC1CCCCC1 [Example 4]

Structure (SMILES): O=c1oc(Cl)ccc1CC1CCCCC1 [Example 2]
inhibition of CE (in words) [2]: potent inhibitors of CE

Structure (SMILES): O=c1oc(Cl)ccc1CCC1CCCCC1 [Example 3]
pKi (chymotrypsin): 4.30
pKi ([2]; calculated Ki, apparent Ki from Dixon plots, equals one half of the concentration of CE used in the assay): 7.52

Source: patent publication EP1323715B1, “Inhibitors of cholesterol esterase” (The University of New Mexico, priority 1997, dated 1998)
